# Tests used:
# [1] = tested on: male Sprague-Dawley rats; experiment: Stress induced hyperthermia (SIH) assay; assay type: in vivo; parameters: key: −: No change in Delta T ([…]T); +: Significant decrease in Delta T ([…]T) (P < 0.05 vs vehicle)
# Source text: Stress-induced hyperthermia (SIH), mediated by the autonomic nervous system, is well known to occur prior to and during exposure to stress and/or anxiety-inducing situations. In many human anxiety disorders, it occurs as an integral part of the pathology and is often considered a representative symptom of the disease, e.g. in generalized anxiety disorder as defined in DSM-IV. In rodents, acute administration of anxiolytic drugs, such as buspirone or chlordiazepoxide (CDP), are known to reduce the SIH response to stressors such as handling, noise, heat, novelty, or pain. The test involves two measures of rectal temperature repeated in the same animal with a 10-minute interval. On the day prior to testing, male Sprague-Dawley rats from Envigo (n=10 per group) were brought to the experimental room approximately one hour before scheduled lights out and singly housed overnight with food and water ad libitum. On the morning of the experiment, animals were first injected with either vehicle or test compound orally by gavage, or CDP (10 mg/kg, i.p.). One hour following injection, each animal was removed from the holding cage and held in a supine position while the rectal temperature was measured by slowly inserting a rectal probe into the animal's rectum at a length of approximately 0.5 cm. The rectal probe was attached to a PhysiTemp digital thermometer (Fisher Scientific) which provides temperature readings at 0.1° C. accuracy. The probe remained inside the animal for approximately 5 seconds or until body temperature reaches stability. This temperature was recorded as the baseline rectal temperature (T1). The animal was immediately placed back to the holding cage and after a 10-min interval the second rectal temperature (T2) was taken using the same procedure as in measuring T1. Before each insertion, the rectal probe was cleaned with an alcohol pad and lubricated with sterile K-Y jelly. All SIH studies were conducted between 8:00-11:00 a.m. The SIH response was calculated as the difference in temperature between the second and first temperature reading (Delta T, […]T). A reduction in […]T relative to the vehicle condition indicates an anxiolytic drug-like response.
# [2] = tested on: Male C57Bl/6J mice; experiment: Marble burying test; assay type: in vivo; parameters: key: −: No reduction in number of marbles buried; +: Significant reduction in number of marbles buried (P < 0.05 vs vehicle); conditions: 1 mg/kg (i.p.)
# Description: The marble burying assay is used to evaluate the anxiolytic activity of a test compound. After placement in a novel cage containing glass marbles, mice will bury the marbles. Acute administration of anxiolytic agents, as well as antidepressants, decrease this activity at non-sedating doses. Male C57Bl/6J mice from Jackson Laboratories were used in this study and were acclimatized to the experimental room for at least 1 hour prior to testing. Mice (n=10 per group) were administered sterile water or test compound intraperitoneally (i.p.) or orally by gavage (p.o.), or the positive control chlordiazepoxide (15 mg/kg, i.p.), in 10 mL/kg injection volumes, and returned to their home cages for a 30-minute pretreatment period. The mice were then placed individually in clean cages, containing hard wood bedding and twenty black marbles placed in spaced rows of 4×5. After a 30-minute test session, the number of buried marbles was counted. A marble was considered buried if it was pushed at least two thirds into the bedding. Locomotor activity was monitored by measuring the distance traveled using an overhead camera and Video Tracker Software (ViewPoint Life Sciences Software, France). A reduction in the number of marbles buried relative to the vehicle condition indicates an anxiolytic drug-like effect.
# [3] = tested on: extracellular concentrations of neurotransmitters (DA, 5-HT, NE, ACh) in the prefrontal cortex (PFC); experiment: In vivo microdialysis of the prefrontal cortex; parameters: key: −: No change in extracellular concentration (P < 0.05 vs vehicle); +: Significant increase in extracellular concentration (P < 0.05 vs vehicle); conditions: mice
# Source text: (§1) In vivo microdialysis is a biological sampling technique used to evaluate the extracellular concentrations of neurotransmitters in specific brain regions following administration of a test compound to animals. Dysfunctions of brain neurotransmitter systems, such as dopamine (DA), norepinephrine (NE), serotonin (5-HT) and/or acetylcholine (ACh), have been linked to cognitive deficits (e.g., memory impairment, inattention, etc.), which may be observed in human aging, Alzheimer's disease (AD) and Attention Deficit Hyperactivity Disorder (ADHD). Drugs that increase extracellular concentrations of DA, NE, 5-HT and/or ACh in the prefrontal cortex (PFC), such as donepezil and methylphenidate, can reverse cognitive deficits in humans and animals.
# (§2) Adult male C57Bl/6 mice (n=6 per group) from Jackson Laboratories were anesthetized using isoflurane (2%, 800 mL/min O2). Bupivacaine/epinephrine was used for local anesthesia and carprofen was used for peri-/post-operative analgesia. The animals were placed in a stereotaxic frame (Kopf instruments, USA) and I-shaped microdialysis probes (polyacrylonitril membrane, BrainLink, the Netherlands) were inserted into the PFC (2 mm exposed membrane; coordinates for the tips of the probes: posterior (AP)=+2.0 mm to bregma, lateral (L)=−0.5 mm to midline and ventral (V)=−3.3 mm to dura, the toothbar set at 0.0 mm) and the NAcc (coordinates for the tips of the probes: posterior (AP)=+0.8 mm to bregma, lateral (L)=+0.9 mm to midline and ventral (V)=−4.2 mm to dura, the toothbar set at 0.0 mm (Paxinos and Franklin, 2001)). After surgery, animals were housed individually in cages and provided food and water ad libitum. In vivo microdialysis experiments were performed one day after surgery. On the day of the experiment, the microdialysis probes were connected with flexible PEEK tubing to a microperfusion pump (Harvard PHD 2000 Syringe pump, Holliston, Mass. or similar). Microdialysis probes were perfused with artificial cerebrospinal fluid (aCSF) containing 147 mM NaCl, 3.0 mM KCl, 1.2 mM CaCl2 and 1.2 mM MgCl2, at a flow rate of […]. Microdialysis samples were collected for 30 minute periods by an automated fraction collector (820 Microsampler, Univentor, Malta or similar) into polystyrene mini-vials already containing 15 μL of 0.02 M formic acid (FA) and 0.04% ascorbic acid in ultrapurified H2O. Four basal samples were collected before the administration of vehicle or test compound (i.p., 5 mL/kg injection volumes). Samples were collected for an additional 240 min following vehicle or compound administration. All the dialysis samples were stored at −80° C. awaiting analysis. After the experiment, the mice were sacrificed and brain tissue was collected for probe verification. Each dialysis sample was analyzed for concentrations of DA, NE, 5-HT and ACh as determined by HPLC with tandem mass spectrometry (MS/MS) detection using labeled isotopes of the analytes of interest as internal standards. Data was expressed as a percentage of basal output, calculated by dividing each post-dose time point with the average basal output=100%. An increase in the post-dose percent basal output of DA, NE, 5-HT and/or ACh in the PFC relative to the vehicle condition indicates a potential cognition-enhancing drug-like response. Graphical representations of the observed changes in neurotransmitter concentrations are shown in the indicated Figures.
# [4] = tested on: extracellular concentrations of neurotransmitters (DA, 5-HT, NE, ACh) in the nucleus accumbens (NAcc); experiment: In vivo microdialysis of the nucleus accumbens; parameters: key: −: No change in extracellular concentration (P < 0.05 vs vehicle); +: Significant increase in extracellular concentration (P < 0.05 vs vehicle); conditions: mice
# Source text: as §1, §2
SMILES,Delta T ([…]T) ([1]; 0.3 mg/kg PO),Marbles Buried [2],PFC [5-HT] (FIG. 2) ([3]; 10 mg/kg IP),PFC [ACh] (FIG. 4) ([3]; 10 mg/kg IP),PFC [DA] (FIG. 1) ([3]; 10 mg/kg IP),PFC [NE] (FIG. 3) ([3]; 10 mg/kg IP),NAcc [5-HT] (FIG. 6) ([4]; 10 mg/kg IP),NAcc [ACh] (FIG. 8) ([4]; 10 mg/kg IP),NAcc [DA] (FIG. 5) ([4]; 10 mg/kg IP),NAcc [NE] (FIG. 7) ([4]; 10 mg/kg IP),Delta T ([…]T) ([1]; 3 mg/kg PO),PFC [5-HT] (FIG. 2) ([3]; 30 mg/kg IP),PFC [ACh] (FIG. 4) ([3]; 30 mg/kg IP),PFC [DA] (FIG. 1) ([3]; 30 mg/kg IP),PFC [NE] (FIG. 3) ([3]; 30 mg/kg IP),NAcc [5-HT] (FIG. 6) ([4]; 30 mg/kg IP),NAcc [ACh] (FIG. 8) ([4]; 30 mg/kg IP),NAcc [DA] (FIG. 5) ([4]; 30 mg/kg IP),NAcc [NE] (FIG. 7) ([4]; 30 mg/kg IP),Delta T ([…]T) ([1]; 1 mg/kg PO)
"C[C@@H]1OCc2ccccc2[C@H]1N (single isomer, unassigned) [Compound 152]",−,−,+,+,+,+,+,−,−,+,,,,,,,,,,
"Cc1cccc2c1[C@@H](N)[C@@H](C)OC2 (single isomer, unassigned) [Compound 170]",,−,,,,,,,,,−,−,−,+,+,−,−,−,+,
Cc1ccc2c(c1)[C@H](N)[C@H](C)OC2 [Compound 157],,−,,,,,,,,,,+,−,+,+,−,−,−,+,−

# Source: patent US11077090B2, “Compounds and compositions and uses thereof” (Sunovion Pharmaceuticals Inc., priority 2016, dated 2021)
